Reference: publication PMC11801715, “Activating PKC-ε induces HIV expression with improved tolerability” (PLOS Pathogens, 2025)
Where two headings read alike, the source gives them in different places.

Tests used:
PKC-β1 [1] = target: T1, PKC-β1 (Homo sapiens, UniProt P05771); experiment: Z'-LYTE kinase activity assay; type: biochemical; conditions: ATP at Kmapp, 2 μM peptide substrate; read-out: IC50 for classical PKC isoforms, PKC-β1
Excerpt: (§1) In this assay, phosphorylation of a synthetic FRET-peptide substrate protects the peptide from cleavage by the development reagent and prevents disruption of the FRET signal.

PKC-α [2] = target: T2, PKC-α (Homo sapiens, UniProt P17252); experiment: Z'-LYTE kinase activity assay; type: biochemical; conditions: ATP at Kmapp, 2 μM peptide substrate; read-out: IC50 for classical PKC isoforms, PKC-α
Excerpt: as §1

PKC-β2 [3] = target: T3, PKC-β2 (Homo sapiens, UniProt P05771); experiment: Z'-LYTE kinase activity assay; type: biochemical; conditions: ATP at Kmapp, 2 μM peptide substrate; read-out: IC50 for classical PKC isoforms, PKC-β2
T3 sequence (P05771 1-673 isoform P05771-2): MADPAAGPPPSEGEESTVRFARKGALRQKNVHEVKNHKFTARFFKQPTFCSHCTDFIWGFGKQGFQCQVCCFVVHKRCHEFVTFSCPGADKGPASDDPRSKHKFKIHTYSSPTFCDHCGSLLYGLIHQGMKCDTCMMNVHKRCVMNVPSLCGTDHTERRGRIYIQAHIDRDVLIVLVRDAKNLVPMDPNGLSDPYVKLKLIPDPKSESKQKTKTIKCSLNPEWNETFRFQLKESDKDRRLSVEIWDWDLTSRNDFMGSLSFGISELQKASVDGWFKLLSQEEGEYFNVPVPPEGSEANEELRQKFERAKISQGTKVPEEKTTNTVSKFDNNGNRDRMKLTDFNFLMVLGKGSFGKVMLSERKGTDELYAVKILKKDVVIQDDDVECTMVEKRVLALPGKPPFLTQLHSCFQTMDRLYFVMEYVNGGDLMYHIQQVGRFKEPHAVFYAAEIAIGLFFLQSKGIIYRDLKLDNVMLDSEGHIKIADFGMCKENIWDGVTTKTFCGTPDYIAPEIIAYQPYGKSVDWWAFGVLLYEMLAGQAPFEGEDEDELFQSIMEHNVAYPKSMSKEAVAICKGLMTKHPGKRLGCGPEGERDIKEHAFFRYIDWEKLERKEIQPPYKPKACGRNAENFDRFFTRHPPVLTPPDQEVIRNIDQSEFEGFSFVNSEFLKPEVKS
Excerpt: as §1

[4] = system: classical and novel PKC isoforms; experiment: Estimated PKC inhibition in cell culture from Z'-LYTE IC50 and free fraction; type: biochemical; conditions: 25 µM, 34% free in cell culture media
Excerpt: as §1

[5] = Free fraction in cell culture media; type: in vitro ADME
PKC-δ = PKC-δ (Homo sapiens, UniProt Q05655); experiment: PKC isoform translocation in A549-tGFP cells; type: cell-based; parameters: host or cells: A549
Chain of PKC-δ (Q05655 whole entry, canonical isoform): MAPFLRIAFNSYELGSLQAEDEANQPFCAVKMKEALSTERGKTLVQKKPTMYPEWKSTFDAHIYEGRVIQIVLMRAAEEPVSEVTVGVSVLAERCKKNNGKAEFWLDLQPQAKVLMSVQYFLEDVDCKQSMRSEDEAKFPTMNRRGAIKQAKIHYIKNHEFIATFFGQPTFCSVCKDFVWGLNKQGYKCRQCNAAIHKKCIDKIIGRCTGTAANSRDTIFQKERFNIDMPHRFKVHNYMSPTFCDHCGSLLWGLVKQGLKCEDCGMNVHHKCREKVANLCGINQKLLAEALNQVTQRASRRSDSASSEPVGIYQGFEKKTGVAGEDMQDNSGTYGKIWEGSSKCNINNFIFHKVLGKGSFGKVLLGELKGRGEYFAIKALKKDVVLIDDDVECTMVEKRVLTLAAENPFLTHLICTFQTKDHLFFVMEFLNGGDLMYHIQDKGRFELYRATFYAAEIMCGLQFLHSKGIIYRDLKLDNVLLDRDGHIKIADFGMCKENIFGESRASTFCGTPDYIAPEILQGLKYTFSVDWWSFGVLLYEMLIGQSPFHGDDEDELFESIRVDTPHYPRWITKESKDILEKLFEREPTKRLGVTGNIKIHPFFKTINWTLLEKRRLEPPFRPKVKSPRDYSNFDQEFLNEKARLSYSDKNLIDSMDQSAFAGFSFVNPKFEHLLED
Experimental: (§2) A description of this effort is reported elsewhere.
(§3) Cellular translocation of PKC isoforms upon activation was determined in 8 A549 cell lines, each expressing a single PKC isoform fused to tGFP (PhenoVista Biosciences). Cells were plated in 384-well plates (80 μL/well) at 10^5 cells/mL in RPMI with 10% FBS and rested overnight. PKC agonist(s) were serially diluted at 1:3 steps in DMSO and added to the cells. After 60 minutes in an incubator at 37 °C, 5% CO2, cells were stained with Hoechst-33342 and fixed with 2% paraformaldehyde for 30 minutes at 4 °C. Cells were then stained with wheat germ agglutinin conjugated to AlexaFluor647 (WGA-647) for 10 minutes at 4 °C, washed to remove excess dye and imaged with Cellomics Array Scan (Thermo Fisher) at room temperature (RT). Images were analyzed using Cellomics automated image analysis algorithm. Plasma membrane translocation was quantified using the ratio between the average fluorescence in the areas at the cell edge defined by WGA-647 and the cytoplasm region.

PKC-η = PKC-η (Homo sapiens, UniProt P24723); experiment: PKC isoform translocation in A549-tGFP cells; type: cell-based; parameters: host or cells: A549; conditions: A549-tGFP cells, 60 minutes
Chain of PKC-η (P24723 whole entry, canonical isoform): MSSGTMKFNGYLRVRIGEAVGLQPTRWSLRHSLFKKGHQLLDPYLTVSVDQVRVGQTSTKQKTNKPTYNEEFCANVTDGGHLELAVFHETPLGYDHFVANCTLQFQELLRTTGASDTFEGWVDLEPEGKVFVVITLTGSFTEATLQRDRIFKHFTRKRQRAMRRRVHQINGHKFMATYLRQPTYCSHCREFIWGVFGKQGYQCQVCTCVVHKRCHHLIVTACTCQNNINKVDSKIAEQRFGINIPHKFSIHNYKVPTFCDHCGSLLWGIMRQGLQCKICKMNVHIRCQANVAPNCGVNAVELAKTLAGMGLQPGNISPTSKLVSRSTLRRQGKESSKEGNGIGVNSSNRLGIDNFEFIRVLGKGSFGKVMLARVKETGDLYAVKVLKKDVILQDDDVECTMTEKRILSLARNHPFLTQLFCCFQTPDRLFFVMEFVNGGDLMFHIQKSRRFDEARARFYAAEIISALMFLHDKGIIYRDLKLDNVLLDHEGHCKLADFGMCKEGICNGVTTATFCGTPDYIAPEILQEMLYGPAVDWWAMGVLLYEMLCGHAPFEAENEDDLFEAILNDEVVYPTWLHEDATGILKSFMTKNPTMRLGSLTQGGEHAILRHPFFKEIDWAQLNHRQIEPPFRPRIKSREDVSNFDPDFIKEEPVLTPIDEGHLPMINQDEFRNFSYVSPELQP
Experimental: as §2, §3

PKC-θ = PKC-θ (Homo sapiens, UniProt Q04759); experiment: PKC isoform translocation in A549-tGFP cells; type: cell-based; parameters: host or cells: A549; conditions: A549-tGFP cells, 60 minutes
Chain of PKC-θ (Q04759 whole entry, canonical isoform): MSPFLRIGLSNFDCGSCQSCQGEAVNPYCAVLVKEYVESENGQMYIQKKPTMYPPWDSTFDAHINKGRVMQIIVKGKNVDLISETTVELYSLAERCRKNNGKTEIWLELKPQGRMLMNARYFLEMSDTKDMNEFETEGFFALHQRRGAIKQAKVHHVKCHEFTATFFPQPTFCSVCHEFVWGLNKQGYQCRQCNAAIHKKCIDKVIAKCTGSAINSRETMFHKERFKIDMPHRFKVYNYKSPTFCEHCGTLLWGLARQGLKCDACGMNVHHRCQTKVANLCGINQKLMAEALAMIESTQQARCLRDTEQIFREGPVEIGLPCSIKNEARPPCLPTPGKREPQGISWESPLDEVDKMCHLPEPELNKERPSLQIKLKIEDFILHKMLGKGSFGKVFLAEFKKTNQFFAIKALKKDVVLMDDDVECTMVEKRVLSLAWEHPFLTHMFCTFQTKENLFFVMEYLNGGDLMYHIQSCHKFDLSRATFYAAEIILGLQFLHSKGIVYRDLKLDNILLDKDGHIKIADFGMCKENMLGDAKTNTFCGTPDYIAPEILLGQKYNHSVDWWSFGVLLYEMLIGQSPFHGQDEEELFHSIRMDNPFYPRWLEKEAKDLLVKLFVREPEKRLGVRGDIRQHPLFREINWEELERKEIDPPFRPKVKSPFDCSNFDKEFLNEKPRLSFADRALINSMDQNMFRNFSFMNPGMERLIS
Experimental: as §2, §3

PKC-α [6] = target: T2, PKC-α; experiment: PKC isoform translocation in A549-tGFP cells; type: cell-based; parameters: host or cells: A549
Experimental: as §2, §3

PKC-ε = target: T4, PKC-ε (Homo sapiens, UniProt Q02156); experiment: PKC isoform translocation in A549-tGFP cells; type: cell-based; parameters: host or cells: A549; conditions: A549-tGFP cells, 60 minutes
T4 sequence (Q02156 1-737): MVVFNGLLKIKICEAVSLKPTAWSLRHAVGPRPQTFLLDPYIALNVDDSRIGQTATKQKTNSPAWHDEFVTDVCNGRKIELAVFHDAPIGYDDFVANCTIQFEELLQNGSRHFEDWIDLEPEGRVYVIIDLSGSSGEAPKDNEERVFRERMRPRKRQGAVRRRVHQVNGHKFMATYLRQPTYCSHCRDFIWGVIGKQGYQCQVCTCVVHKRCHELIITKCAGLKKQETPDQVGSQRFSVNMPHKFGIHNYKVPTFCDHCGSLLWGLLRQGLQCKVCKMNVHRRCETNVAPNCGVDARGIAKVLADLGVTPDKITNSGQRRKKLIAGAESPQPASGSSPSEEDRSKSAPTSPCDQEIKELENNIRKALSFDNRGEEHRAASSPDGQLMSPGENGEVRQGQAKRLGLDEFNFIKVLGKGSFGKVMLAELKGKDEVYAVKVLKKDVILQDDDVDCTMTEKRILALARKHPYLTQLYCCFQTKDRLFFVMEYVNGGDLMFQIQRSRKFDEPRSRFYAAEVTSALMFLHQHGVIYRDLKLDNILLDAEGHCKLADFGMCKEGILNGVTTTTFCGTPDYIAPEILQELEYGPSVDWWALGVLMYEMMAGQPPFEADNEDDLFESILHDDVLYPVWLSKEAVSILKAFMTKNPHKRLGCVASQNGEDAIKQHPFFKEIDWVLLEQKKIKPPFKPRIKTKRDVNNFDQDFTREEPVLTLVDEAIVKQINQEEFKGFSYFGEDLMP
Experimental: (§4) Using these findings we embarked on new designs for DAG-lactones with additional substituents from the ester moiety in combination with a few olefin substituents. A description of this effort is reported elsewhere.
as §3

PKC-β1 [7] = target: T1, PKC-β1; experiment: PKC isoform translocation in A549-tGFP cells; type: cell-based; parameters: host or cells: A549; conditions: 60 minutes
Experimental: as §4, §3

PKC-γ = PKC-γ (Homo sapiens, UniProt P05129); experiment: PKC isoform translocation in A549-tGFP cells; type: cell-based; parameters: host or cells: A549; conditions: 60 minutes
Experimental: as §4, §3

PKC-β2 [8] = target: T3, PKC-β2; experiment: PKC isoform translocation in A549-tGFP cells; type: cell-based; parameters: host or cells: A549; conditions: 60 minutes
Experimental: as §4, §3

PKC δ and ε over α and β = conditions: cited from earlier work
[9] = system: latent HIV in total CD4+ T cells; experiment: microbe, parasite or virus in culture; type: cell-based, HIV-1; conditions: for HIV RNA Fold∆ over DMSO, Geomean: 5 μM
Experimental: Peripheral blood mononuclear cells and CD4^+ T cells used for evaluating PKC agonist and inhibitor molecules were isolated from leukopaks of selected participants as described previously. Isolated CD4^+ T cells (5×10^6 cells/well) were added to 24-well tissue culture plates in 2.5 mL of RPMI medium containing 100 nM each of elvitegravir and efavirenz. Cells were stimulated with DMSO (vehicle control) or the indicated concentrations of PKC agonist molecules. Cells were pretreated with PKC isoform inhibitors (Selleck Chemicals) for 1 hour before addition of PKC agonist at indicated concentrations and maintained at 37 °C, 5% CO2 for 3 days. Cell supernatants from each well were analyzed using the Cobas […] system for quantification of HIV-1 RNA using the HIV-1 test v2.0 kit (Roche Diagnostics).

[10] = system: platelets (CD62P+) and CD4+ T cells (CD69+) in whole blood; experiment: In vitro whole blood platelet and CD4+ T-cell activation assay; type: cell-based, human; conditions: whole blood from healthy donors; platelets to CD4+ T cells
Experimental: We developed a novel human whole blood assay to determine whether other PKC agonists also activate platelets at the same concentrations that are required to activate CD4^+ T cells. Platelet activation was assessed by CD62P (P-selectin), which traffics to the cell surface upon activation and α-granule release. CD4^+ T-cell activation was assessed by CD69 upregulation (Fig 7A).
Whole blood was drawn into sodium citrate tubes using a 21-gauge needle. To prevent potential interference from tissue thromboplastin released during venipuncture, which could affect the accuracy of coagulation testing, the first 2 mL of blood drawn was discarded. PKC agonist molecules were dispensed in a dilution series into 80 μL of blood per well in a flat-bottom 96-well plate and mixed gently. Care was taken not to introduce any mechanical stress-related activation of platelets. […] The remaining 72 μL of blood in the first plate was incubated for 1 additional hour and stained with anti-human CD3 (UCHT1), CD4 (SK3), and CD69 (FN50) (30 minutes in the dark). Red blood cell lysis and fixing was done using BD lyse/fix solution. Stained cells were acquired on BD LSR Fortessa II after washing. […] EC50 values for platelet and CD4 T-cell activation for each agonist was obtained by nonlinear regression curve fit using GraphPad Prism version 9.3.0.

platelet-rich plasma = experiment: Platelet aggregation assay (light transmittance aggregometry); type: cell-based, human; conditions: dilution series, 20 minutes
Experimental: Given that C-232A induced DIC in rats and monkeys, we tested whether C-232A could directly induce platelet activation and downstream aggregation. […] Adenosine diphosphate, a known platelet agonist, was used as a positive control (S7A Fig).
Aggregation of platelets was assessed using light transmittance aggregometry using standard methods.
(A) Assay principle for platelet aggregation assay.

PBMCs = experiment: Cytokine induction in vitro in PBMC culture supernatants; type: cell-based, human; conditions: 24 hours
Experimental: Culture supernatants were analyzed for induction of several cytokines as shown in S3 Table, using a 10-plex MSD (Meso Scale Discovery) assay following manufacturer’s instructions. MSD Workbench 4.0 software was used for data analysis and 4-parameter logistic curve fit model was utilized to determine values of experimental samples from standard curves. Values for each cytokine (pg/mL) for a given concentration was calculated as the geometric mean of all triplicate values combined from all 5 donors.

CD69 on CD4+ T cells = experiment: CD4+ T-cell activation flow cytometry (CD69); type: cell-based; conditions: Homo sapiens; CD4+ T cells from ART-suppressed people with HIV; read-out: EC50, activation of CD69 expression
Experimental: Sixteen hours post treatment with PKC agonists, cellular activation of 100,000 CD4^+ T cells, taken from the above ex vivo HIV activation cultures, was assessed using flow cytometry. Cell surface expression of CD69 was measured on CD4^+ T cells using anti-human CD3 (UCHT1), CD4 (SK3) and CD69 (FN50) antibodies and standard flow staining methods. Stained cells were acquired on the Becton Dickinson (BD) LSR Fortessa II flow cytometer and results were analyzed using FlowJo software.

T1 sequence (P05771 whole entry, canonical isoform): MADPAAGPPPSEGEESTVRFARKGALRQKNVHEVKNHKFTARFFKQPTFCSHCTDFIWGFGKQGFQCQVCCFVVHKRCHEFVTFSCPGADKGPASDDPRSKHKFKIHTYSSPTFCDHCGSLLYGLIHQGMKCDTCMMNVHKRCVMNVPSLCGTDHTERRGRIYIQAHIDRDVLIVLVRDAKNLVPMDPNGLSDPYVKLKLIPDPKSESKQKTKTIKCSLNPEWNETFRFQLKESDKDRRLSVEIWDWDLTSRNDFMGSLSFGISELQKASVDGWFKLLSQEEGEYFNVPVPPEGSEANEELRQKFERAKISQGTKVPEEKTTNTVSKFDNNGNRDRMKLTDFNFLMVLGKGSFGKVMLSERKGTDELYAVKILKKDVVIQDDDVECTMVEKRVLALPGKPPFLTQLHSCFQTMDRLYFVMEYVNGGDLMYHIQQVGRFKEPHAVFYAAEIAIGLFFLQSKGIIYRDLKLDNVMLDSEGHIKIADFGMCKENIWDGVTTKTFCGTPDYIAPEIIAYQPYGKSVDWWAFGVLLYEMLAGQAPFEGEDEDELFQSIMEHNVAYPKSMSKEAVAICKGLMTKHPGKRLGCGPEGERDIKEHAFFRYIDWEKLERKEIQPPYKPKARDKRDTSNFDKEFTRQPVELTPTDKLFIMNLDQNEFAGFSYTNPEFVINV

## Cn1c2ccccc2c2c3c(c4c5ccccc5n(CCC#N)c4c21)CNC3=O [Gӧ-6976]
PKC-β1 [1]
  IC50: 0.469 µM
PKC-α [2]
  IC50: 0.101 µM
PKC-β2 [3]
  IC50: 0.182 µM
[4]
  estimated effect on novel PKC isoforms: without impacting novel PKC isoforms
  estimated inhibition of classical isoform activity: 75%–95%
[5]
  free in cell culture media: 34%

## CC(C)CC(C/C=C1\CC(CO)(COC(=O)C(C)(C)C)OC1=O)CC(C)C (stereo not shown) [AJH-863, reference compound]
PKC-δ; EC50 for PKC-δ translocation
  EC50: 2.32 µM
PKC-η
  EC50: 1.89 µM
PKC-θ
  EC50: 1.2 µM
PKC-α [6]
  EC50: > 50 µM
PKC-ε
  EC50: 0.505 µM
PKC-β1 [7]
  EC50: 1.3 µM
PKC-γ
  EC50: 19.4 µM
PKC-β2 [8]
  EC50: 1.06 µM
PKC δ and ε over α and β
  potency as PKC agonist: low nanomolar potency
  selectivity for δ and ε over α and β: approximately 10 fold

## CC(C)=C1CC(CO)(COC(=O)c2ccc(C#Cc3ccc(C)cc3)cc2)OC1=O (stereo not shown) [Comin compound 2]
PKC-δ; A549-tGFP cells, 60 minutes, read-out: EC50 for PKC-δ translocation
  EC50: 4.04 µM
PKC-η
  EC50: 1.19 µM
PKC-θ
  EC50: 0.792 µM
PKC-α [6]; A549-tGFP cells, 60 minutes, read-out: EC50 for PKC-α translocation
  EC50: > 50 µM
PKC-ε
  EC50: 0.783 µM
PKC-β1 [7]
  EC50: 0.966 µM
PKC-β2 [8]
  EC50: 6.65 µM
[9]; agonist alone
  HIV RNA Fold∆ over DMSO, Geomean: 13 fold
[9]; +5 μM Gö-6850 Pan-PKC Inhibitor
  HIV RNA Fold∆ over DMSO, Geomean: 1.6 fold
[9]; +25 μM Gö-6976 Classical-PKC Inhibitor
  HIV RNA Fold∆ over DMSO, Geomean: 15 fold

## CCCCCC(=O)O[C@H]1C(C)=C[C@]23C(=O)[C@@H](C=C(CO)[C@@H](O)[C@]12O)[C@H]1[C@@H](C[C@H]3C)C1(C)C [Ingenol B, reference compound]
[10]
  CD62P EC50/CD69 EC50 ratio Geomean: 1.8

## CC(=O)O[C@@]12C[C@@H](C)[C@@]3(O)[C@@H](C=C(CO)C[C@]4(O)C(=O)C(C)=C[C@@H]34)[C@@H]1C2(C)C [Prostratin, prostratin, reference compound]
platelet-rich plasma
  platelet aggregation: stimulated platelet aggregation
PBMCs; 625 nM
  GM-CSF in PBMC culture supernatant: 35 pg/mL
  IFN-γ in PBMC culture supernatant: 255 pg/mL
  IL-1b in PBMC culture supernatant: 57 pg/mL
  IL-2 in PBMC culture supernatant: 22 pg/mL
  IL-4 in PBMC culture supernatant: 0.7 pg/mL
  IL-6 in PBMC culture supernatant: 40 pg/mL
  IL-8 in PBMC culture supernatant: 40,698 pg/mL
  IL-10 in PBMC culture supernatant: 4 pg/mL
  IL-12p70 in PBMC culture supernatant: 10 pg/mL
  TNF-α in PBMC culture supernatant: 634 pg/mL
PBMCs; 2500 nM
  GM-CSF in PBMC culture supernatant: 68 pg/mL
  IFN-γ in PBMC culture supernatant: 292 pg/mL
  IL-1b in PBMC culture supernatant: 108 pg/mL
  IL-2 in PBMC culture supernatant: 32 pg/mL
  IL-4 in PBMC culture supernatant: 1.1 pg/mL
  IL-6 in PBMC culture supernatant: 78 pg/mL
  IL-8 in PBMC culture supernatant: 45,930 pg/mL
  IL-10 in PBMC culture supernatant: 4.6 pg/mL
  IL-12p70 in PBMC culture supernatant: 12 pg/mL
  TNF-α in PBMC culture supernatant: 1489 pg/mL
[9]; Human immunodeficiency virus 1, CD4+ T, read-out: EC50, activation of HIV expression
  EC50: 2.5 µM
CD69 on CD4+ T cells
  EC50: 0.28 µM

## CC(C)[C@H]1C(=O)N[C@H](CO)Cc2c[nH]c3cccc(c23)N1C [Indolactam, reference compound]
[10]
  CD62P EC50/CD69 EC50 ratio Geomean: 2.0

## CCCCCCCCCCCCCC(=O)O[C@@H]1[C@@H](C)[C@@]2(O)[C@@H](C=C(CO)C[C@]3(O)C(=O)C(C)=C[C@@H]23)[C@@H]2C(C)(C)[C@]12OC(C)=O [PMA, phorbol 12-myristate 13-acetate, reference compound]
[10]
  CD62P EC50/CD69 EC50 ratio Geomean: 1.5
